Laboratory results taken from ChEMBL document CHEMBL1268972, “Solid-phase synthesis and screening of N-acylated polyamine (NAPA) combinatorial libraries for protein binding” (Bioorg Med Chem Lett, 2010).
pKd: −log10 of the molar value.

Test: Binding to HIV1 Vpr by isothermal titration calorimetry
Design: species or system Human immunodeficiency virus

pKd: 4.60
SMILES: C[C@H](CC(N)=O)N(C[C@@H](CCCCN)N(C[C@@H](CCCCN)N(C[C@@H](Cc1ccc(O)cc1)NC(=O)Cc1ccc([N+](=O)[O-])cc1)C(=O)CCc1ccccc1)C(=O)CCc1ccccc1)C(=O)CCc1ccccc1
